Tested on: patients with cGVHD
Settings: Cohort 2 200 mg BID

CC(C)NC(=O)COc1cccc(-c2nc(Nc3ccc4[nH]ncc4c3)c3ccccc3n2)c1 [Belumosudil, 2-{3-[4-(1H-indazol-5-ylamino)-2-quinazolinyl]phenoxy}-N-(propan-2-yl) acetamide]
Bronchoscopy: # Events: 0 | Bronchoscopy: Affected/At Risk (%): 0/16 (0%) | Catheter site haemorrhage: # Events: 0 | Catheter site haemorrhage: Affected/At Risk (%): 0/16 (0%) | Chills: # Events: 1 | Chills: Affected/At Risk (%): 1/16 (6.25%) | Chronic kidney disease: # Events: 0 | Chronic kidney disease: Affected/At Risk (%): 0/16 (0%) | Conjunctival haemorrhage: # Events: 1 | Conjunctival haemorrhage: Affected/At Risk (%): 1/16 (6.25%) | Conjunctivitis: # Events: 1 | Conjunctivitis: Affected/At Risk (%): 1/16 (6.25%) | Constipation: # Events: 1 | Constipation: Affected/At Risk (%): 1/16 (6.25%) | Contrast media allergy: # Events: 2 | Contrast media allergy: Affected/At Risk (%): 2/16 (12.5%) | Contusion: # Events: 2 | Contusion: Affected/At Risk (%): 2/16 (12.5%) | Corneal abrasion: # Events: 0 | Corneal abrasion: Affected/At Risk (%): 0/16 (0%) | Corneal infection: # Events: 2 | Corneal infection: Affected/At Risk (%): 1/16 (6.25%) | Cough: # Events: 5 | Cough: Affected/At Risk (%): 4/16 (25%) | Death, No. (%): 0 | Decreased appetite: # Events: 2 | Decreased appetite: Affected/At Risk (%): 2/16 (12.5%) | Dehydration: # Events: 4 | Dehydration: Affected/At Risk (%): 3/16 (18.75%) | Depression: # Events: 4 | Depression: Affected/At Risk (%): 4/16 (25%) | Diarrhoea: # Events: 10 | Diarrhoea: Affected/At Risk (%): 5/16 (31.25%) | Dizziness: # Events: 4 | Dizziness: Affected/At Risk (%): 1/16 (6.25%) | Drug eruption: # Events: 1 | Drug eruption: Affected/At Risk (%): 1/16 (6.25%) | Drug-related AE, No. (%): 8 (50) | Drug-related SAE, No. (%): 0 | Dry eye: # Events: 4 | Dry eye: Affected/At Risk (%): 4/16 (25%) | Dry skin: # Events: 0 | Dry skin: Affected/At Risk (%): 0/16 (0%) | Dyspepsia: # Events: 2 | Dyspepsia: Affected/At Risk (%): 2/16 (12.5%) | Dysphagia: # Events: 4 | Dysphagia: Affected/At Risk (%): 3/16 (18.75%) | Dyspnoea exertional: # Events: 0 | Dyspnoea exertional: Affected/At Risk (%): 0/16 (0%) | Dyspnoea: # Events: 7 | Dyspnoea: Affected/At Risk (%): 5/16 (31.25%) | Embolism: # Events: 0 | Embolism: Affected/At Risk (%): 0/16 (0%) | Enamel anomaly: # Events: 1 | Enamel anomaly: Affected/At Risk (%): 1/16 (6.25%) | Epidural lipomatosis: # Events: 0 | Epidural lipomatosis: Affected/At Risk (%): 0/16 (0%) | Epstein-Barr virus infection: # Events: 0 | Epstein-Barr virus infection: Affected/At Risk (%): 0/16 (0%) | Erectile dysfunction: # Events: 0 | Erectile dysfunction: Affected/At Risk (%): 0/16 (0%) | Eye irritation: # Events: 0 | Eye irritation: Affected/At Risk (%): 0/16 (0%) | Eye pain: # Events: 4 | Eye pain: Affected/At Risk (%): 2/16 (12.5%) | Eye pruritus: # Events: 1 | Eye pruritus: Affected/At Risk (%): 1/16 (6.25%) | Fall: # Events: 1 | Fall: Affected/At Risk (%): 1/16 (6.25%) | Fatigue: # Events: 7 | Fatigue: Affected/At Risk (%): 3/16 (18.75%) | Flatulence: # Events: 2 | Flatulence: Affected/At Risk (%): 1/16 (6.25%) | Flushing: # Events: 1 | Flushing: Affected/At Risk (%): 1/16 (6.25%) | Fungal infection: # Events: 0 | Fungal infection: Affected/At Risk (%): 0/16 (0%) | Gamma-glutamyltransferase increased: # Events: 4 | Gamma-glutamyltransferase increased: Affected/At Risk (%): 4/16 (25%) | Gastric ulcer: # Events: 1 | Gastric ulcer: Affected/At Risk (%): 1/16 (6.25%) | Gastrooesophageal reflux disease: # Events: 1 | Gastrooesophageal reflux disease: Affected/At Risk (%): 1/16 (6.25%) | Generalised oedema: # Events: 0 | Generalised oedema: Affected/At Risk (%): 0/16 (0%) | Genital infection fungal: # Events: 1 | Genital infection fungal: Affected/At Risk (%): 1/16 (6.25%) | Glaucoma: # Events: 1 | Glucose urine present: # Events: 0 | Glucose urine present: Affected/At Risk (%): 0/16 (0%) | Grade ≥3 AE, No. (%): 10 (63) | Grade ≥3 ALT/AST increased, No. (%): 2 (13) | Grade ≥3 Anemia, No. (%): 1 (6) | Grade ≥3 Dyspnea, No. (%): 2 (13) | Grade ≥3 Hyperglycemia, No. (%): 0 | Grade ≥3 Hypoxia, No. (%): 1 (6) | Grade ≥3 Lung infection or pneumonia, No. (%): 2 (13) | Graft versus host disease in gastrointestinal tract: # Events: 0 | Graft versus host disease in gastrointestinal tract: Affected/At Risk (%): 0/16 (0%) | Gynaecomastia: # Events: 1 | Gynaecomastia: Affected/At Risk (%): 1/16 (6.25%) | Haematuria: # Events: 1 | Haematuria: Affected/At Risk (%): 1/16 (6.25%) | Hair growth abnormal: # Events: 0 | Hair growth abnormal: Affected/At Risk (%): 0/16 (0%) | Headache: # Events: 3 | Headache: Affected/At Risk (%): 3/16 (18.75%) | Hodgkin's disease recurrent: # Events: 0 | Hodgkin's disease recurrent: Affected/At Risk (%): 0/16 (0%) | Hordeolum: # Events: 0 | Hordeolum: Affected/At Risk (%): 0/16 (0%) | Hot flush: # Events: 0 | Hot flush: Affected/At Risk (%): 0/16 (0%) | Hyperglycemia: # Events: 0 | Hyperglycemia: Affected/At Risk (%): 0/16 (0%) | Hyperhidrosis: # Events: 1 | Hyperhidrosis: Affected/At Risk (%): 1/16 (6.25%) | Hyperkalaemia: # Events: 2 | Hyperkalaemia: Affected/At Risk (%): 2/16 (12.5%) | Hypertension: # Events: 5 | Hypertension: Affected/At Risk (%): 2/16 (12.5%) | Hyperthyroidism: # Events: 1 | Hyperthyroidism: Affected/At Risk (%): 1/16 (6.25%) | Hypertriglyceridaemia: # Events: 1 | Hypertriglyceridaemia: Affected/At Risk (%): 1/16 (6.25%) | Hyperuricaemia: # Events: 2 | Hyperuricaemia: Affected/At Risk (%): 1/16 (6.25%) | Hypoaesthesia: # Events: 0 | Hypoaesthesia: Affected/At Risk (%): 0/16 (0%) | Hypocalcaemia: # Events: 4 | Hypocalcaemia: Affected/At Risk (%): 1/16 (6.25%) | Hypogonadism: # Events: 0 | Hypogonadism: Affected/At Risk (%): 0/16 (0%) | Hypokalaemia: # Events: 3 | Hypokalaemia: Affected/At Risk (%): 2/16 (12.5%) | Hypomagnesaemia: # Events: 1 | Hypomagnesaemia: Affected/At Risk (%): 1/16 (6.25%) | Hyponatraemia: # Events: 0 | Hyponatraemia: Affected/At Risk (%): 0/16 (0%) | Hypophosphataemia: # Events: 1 | Hypophosphataemia: Affected/At Risk (%): 1/16 (6.25%) | Hypothermia: # Events: 1 | Hypothermia: Affected/At Risk (%): 1/16 (6.25%) | Hypothyroidism: # Events: 2 | Hypothyroidism: Affected/At Risk (%): 1/16 (6.25%) | Hypoxia: # Events: 5 | Hypoxia: Affected/At Risk (%): 2/16 (12.5%) | Impaired healing: # Events: 0 | Impaired healing: Affected/At Risk (%): 0/16 (0%) | Influenza like illness: # Events: 2 | Influenza like illness: Affected/At Risk (%): 1/16 (6.25%) | Influenza: # Events: 2 | Influenza: Affected/At Risk (%): 1/16 (6.25%) | Insomnia: # Events: 0 | Insomnia: Affected/At Risk (%): 0/16 (0%) | Irritability: # Events: 0 | Irritability: Affected/At Risk (%): 0/16 (0%) | Joint range of motion decreased: # Events: 1 | Joint range of motion decreased: Affected/At Risk (%): 1/16 (6.25%) | Lacrimation increased: # Events: 1 | Lacrimation increased: Affected/At Risk (%): 1/16 (6.25%) | Leukaemia recurrent: # Events: 0 | Leukaemia recurrent: Affected/At Risk (%): 0/16 (0%) | Leukocytosis: # Events: 0 | Leukocytosis: Affected/At Risk (%): 0/16 (0%) | Ligament sprain: # Events: 0 | Ligament sprain: Affected/At Risk (%): 0/16 (0%) | Limb injury: # Events: 0 | Limb injury: Affected/At Risk (%): 0/16 (0%) | Macular degeneration: # Events: 1

— US20260027116A1, “Methods of Treating Chronic Graft-Versus-Host Disease Following Allogeneic Hematopoietic Stem Cell Transplantation” (Kadmon Corporation, LLC, priority 2022, published 2026)
